The text below walks through data of patent US20110003314A1, “Hapten, Immunogens and Derivatives of Ascomycin Useful for Preparation of Antibodies and Immunoassays” (MICROGENICS CORPORATION, priority 2004, published 2011).

Molecules are shown by their SMILES.

The subject of assay [1] is monoclonal antibody produced by hybridoma line 28E2. In words: CEDIA tacrolimus assay specificity (cross-reactivity). It counts as binding, mice. The conditions noted are these: for Concentration Measured: added to whole blood, concentration tested 20 ng/ml. How it is done: Antibodies obtained using any of the aforementioned techniques are screened or purified not only for their ability to bind specifically with tacrolimus, but also for low cross-reactivity with potential interfering substances. “Cross reactivity” is determined in a quantitative immunoassay by establishing a standard curve using known dilutions of tacrolimus or ascomycin. […] The percent (%) cross-reactivity is the measured concentration divided by the tested concentration multiplied by 100.
If tacrolimus is present in the sample, it binds to the antibody, leaving the ED portion of the competing conjugate free to restore enzyme activity upon complementation reaction with enzyme acceptor (EA) fragments in the assay reaction mixture. The active enzyme is then capable of producing a quantifiable reaction product when exposed to appropriate substrate. If drug is not present in the sample, the antibody binds to the ED-drug conjugate inhibiting association of the ED fragments with the EA fragments, thus inhibiting restoration of enzyme activity. The amount of reaction product and resultant absorbance change are proportional to the amount of drug in the sample.
Each of four naturally occurring metabolites of tacrolimus, at a concentration of approximately 20 ng/ml, was added separately to a whole blood specimen. […] The cross reactivity of the metabolites was calculated as:
(measured concentration)/20ng/ml×100%
In another experiment, commonly co-administered immunosuppressants were added to whole blood and tested for cross-reactivity.

Assay [2] has as its system antibodies that bind rapamycin. The conditions noted are these: taught by Sedrani et al.; cited from earlier work.
The mark [3] stands for this setting: other immunosuppressants in whole blood, tested concentration 100,000 ng/ml.
[4] abbreviates: tacrolimus metabolites, 20 ng/ml in whole blood, (measured concentration)/20 ng/ml x 100%.

With `C[C@]12CCC(=O)C=C1CC[C@@H]1[C@@H]2[C@@H](O)C[C@@]2(C)[C@H]1CC[C@]2(O)C(=O)CO` [Hydrocorticol], the “% Cross-Reactivity” value in assay [1] (setting [3]) stood at 0.0%.

Turning to `C[C@]12C=CC(=O)C=C1CC[C@@H]1[C@@H]2[C@@H](O)C[C@@]2(C)[C@H]1CC[C@]2(O)C(=O)CO` [Prednisolone], the “% Cross-Reactivity” value in assay [1] (setting [3]) is given as 0.0%.

In the case of `C=CCC1C=C(C)CC(C)CC(OC)C2OC(O)(C(=O)C(=O)N3CCCCC3C(=O)OC(C(C)=CC3CCC(O)C(OC)C3)C(C)C(O)CC1=O)C(C)CC2O` (stereo not drawn) [13-O-demethyl-T, 13-O-demethyl tacrolimus], the “Concentration Measured” value in assay [1] stood at 7.5 ng/mL. Moreover, in assay [1] (setting [4]), the “% Cross-Reactivity” value is listed as 37.7%.

As to `C=CCC1C=C(C)CC(C)CC(OC)C2OC(O)(C(=O)C(=O)N3CCCCC3C(=O)OC(C(C)=CC3CCC(O)C(O)C3)C(C)C(O)CC1=O)C(C)CC2O` (stereo not drawn) [13,31-O-didemethyl-T, 13,31-O-didemethyl tacrolimus], the “Concentration Measured” value in assay [1] turned out to be 0.57 ng/mL. Besides, in assay [1] (setting [4]), the “% Cross-Reactivity” value is reported as 2.9%.

In the case of `C=CC[C@@H]1/C=C(\C)C[C@H](C)C[C@H](OC)[C@H]2O[C@@](O)(C(=O)C(=O)N3CCCC[C@H]3C(=O)O[C@H](/C(C)=C/[C@@H]3CC[C@@H](O)[C@H](OC)C3)[C@H](C)[C@@H](O)CC1=O)[C@H](C)C[C@@H]2OC` [tacrolimus], in assay [1], the “Concentration Measured” value came to 20.0 ng/mL. For the same molecule, in assay [1] (setting [4]), the “% Cross-Reactivity” value amounted to 100.0%. Besides, the “cross-reactivity of rapamycin-binding antibodies” value in assay [2] was “greater than 50%”.

As for `C=CCC1C=C(C)CC(C)CC(OC)C2OC(O)(C(=O)C(=O)N3CCCCC3C(=O)OC(C(C)=CC3CCC(O)C(O)C3)C(C)C(O)CC1=O)C(C)CC2OC` (stereo not drawn) [31-O-demethyl-T, 31-O-demethyl tacrolimus], the “Concentration Measured” value in assay [1] is 0.98 ng/mL. Besides, in assay [1] (setting [4]), the “% Cross-Reactivity” value is reported as 4.9%.

Consider `C[C@]12C=CC(=O)C=C1CC[C@@H]1[C@@H]2C(=O)C[C@@]2(C)[C@H]1CC[C@]2(O)C(=O)CO` [Prednisone], for which the “% Cross-Reactivity” value in assay [1] (setting [3]) was 0.0%.

As for `C=CCC1C=C(C)CC(C)CC(O)C2OC(O)(C(=O)C(=O)N3CCCCC3C(=O)OC(C(C)=CC3CCC(O)C(OC)C3)C(C)C(O)CC1=O)C(C)CC2OC` (stereo not drawn) [15-O-demethyl-T, 15-O-demethyl tacrolimus], the “Concentration Measured” value in assay [1] was found to be 0.95 ng/mL. Moreover, the “% Cross-Reactivity” value in assay [1] (setting [4]) is on record as 4.7%.

For `COc1c(C)c2c(c(O)c1C/C=C(\C)CCC(=O)O)C(=O)OC2` [Mycophenolic acid], the “% Cross-Reactivity” value in assay [1] (setting [3]) turned out to be 0.0%.
